The term Km denotes the concentration of substrate that gives half-maximal velocity.

In assay [1] the test system is T1, NhAAT.
T1 construct: gene AAT; E. coli BL21 pLysS; homodimer predicted; catalytic Lys267; primers imply N-terminus MTTTAMAP and C-terminus ETVVKQE
Put plainly: coupled malate dehydrogenase assay, NADH decrease at […] nm, double reciprocal plot. In kind it is biochemical, Neoporphyra haitanensis. Particulars: reverse reaction; co-substrate 20 mM α-ketoglutarate; 50 µM PLP; 0.1 M sodium phosphate; optimal conditions pH 7.5, 45 °C; L-aspartic acid 0-100 mM.

The subject of assay [2] is T2, NhAAT.
T2 construct: gene AAT
Particulars: forward reaction; co-substrate 20 mM oxaloacetic acid; 50 µM PLP; 0.1 M sodium phosphate; optimal conditions pH 7.5, 45 °C; L-glutamic acid 0-100 mM.

Read-outs that look alike come from different tables or passages of the source.

With `N[C@@H](CC(=O)O)C(=O)O` [L-aspartic acid], in the assay on NhAAT [1], the Michaelis constant (Km) came to 6.16 mM. In the case of `N[C@@H](CCC(=O)O)C(=O)O` [L-glutamic acid], in the assay on NhAAT [2], the Km turned out to be 5.67 mM.

The record behind these values is publication PMC10029208, “Isolation and functional verification of an aspartate aminotransferase gene from Neoporphyra haitanensis” (BMC Plant Biology, 2023).
